These results are taken from patent US9073926B2, “Heterocyclic compounds containing a pyrrolopyridine or benzimidazole core” (Boehringer Ingelheim International GmbH, priority 2009, dated 2015).

pIC50: −log10 of the molar value.

Human RSK2, sequence (P51812 whole entry): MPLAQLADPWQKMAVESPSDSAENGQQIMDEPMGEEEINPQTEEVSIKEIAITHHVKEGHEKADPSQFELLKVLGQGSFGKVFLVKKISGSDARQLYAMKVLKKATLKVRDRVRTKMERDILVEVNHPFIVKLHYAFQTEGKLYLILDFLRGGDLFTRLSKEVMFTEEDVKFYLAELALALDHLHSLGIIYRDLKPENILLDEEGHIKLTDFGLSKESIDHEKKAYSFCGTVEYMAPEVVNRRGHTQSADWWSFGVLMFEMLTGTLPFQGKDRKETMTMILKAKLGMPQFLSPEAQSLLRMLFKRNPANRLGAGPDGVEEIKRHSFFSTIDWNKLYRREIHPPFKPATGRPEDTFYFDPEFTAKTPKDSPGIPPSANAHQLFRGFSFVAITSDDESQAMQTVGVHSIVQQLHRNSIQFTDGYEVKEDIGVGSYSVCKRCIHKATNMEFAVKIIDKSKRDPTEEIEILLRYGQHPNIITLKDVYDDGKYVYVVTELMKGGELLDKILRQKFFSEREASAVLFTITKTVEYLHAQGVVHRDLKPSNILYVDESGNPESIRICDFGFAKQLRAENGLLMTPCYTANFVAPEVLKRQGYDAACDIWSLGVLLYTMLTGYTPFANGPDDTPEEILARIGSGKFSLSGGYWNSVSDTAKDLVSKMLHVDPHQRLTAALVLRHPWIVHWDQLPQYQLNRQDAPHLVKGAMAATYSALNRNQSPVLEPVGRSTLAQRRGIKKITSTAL

This test concerns the target Human RSK2 (Homo sapiens (Human), UniProt P51812). As to the kind of experiment: Human RSK2 Assay (Kinase Glo Plus, residual ATP). The class given is biochemical. The conditions noted are these: 0.75 nM His-RSK2, 0.75 μM ATP, 1.0 μM S6 Kinase/RSK Substrate Peptide 1. The procedure, abridged: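 His-RSK2 (0.75 nM) with 0.75 μM ATP and 1.0 μM S6 kinase/RSK substrate peptide in HEPES pH 7.5 buffer with Mg/Mn, 90 min at 28° C. Residual ATP read by Kinase Glo Plus luminescence; percent of control fitted to a 4-parameter logistic, IC50 taken as inflection point.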
Take `C[C@H]1CNC(=O)c2cc3ccc(C(=O)Nc4cnn(Cc5ccccc5)c4)nc3n21` [Example 60, (9S)-N-(1-benzyl-1H-pyrazol-4-yl)-9-methyl-6-oxo-6,7,8,9-tetrahydropyrido[3′,2′:4,5]pyrrolo[1,2-a]pyrazine-2-carboxamide]: the pIC50 is 7.92. As for `CC(C)n1ncc2cc(NC(=O)c3ccc4cc5n(c4n3)[C@@H](C)CNC5=O)cnc21` [Example 63, (9S)-9-methyl-6-oxo-N-[1-(propan-2-yl)-1H-pyrazolo[3,4-b]pyridin-5-yl]-6,7,8,9-tetrahydropyrido[3′,2′:4,5]pyrrolo[1,2-a]pyrazine-2-carboxamide], the pIC50 is 7.08.

Turning to `C[C@@H]1CNC(=O)c2cc3ccc(C(=O)Nc4cnc5ccccc5c4)nc3n21` [Example 64, (9R)-9-methyl-6-oxo-N-(quinolin-3-yl)-6,7,8,9-tetrahydropyrido[3′,2′:4,5]pyrrolo[1,2-a]pyrazine-2-carboxamide], the pIC50 is 8.52.

Consider `C[C@H]1CNC(=O)c2cc3ccc(C(=O)Nc4cnc5ccccc5c4)nc3n21` [Example 65, (9S)-9-methyl-6-oxo-N-(quinolin-3-yl)-6,7,8,9-tetrahydropyrido[3′,2′:4,5]pyrrolo[1,2-a]pyrazine-2-carboxamide], for which the pIC50 is 7.47. Turning to `CC(C)n1ncc2cc(NC(=O)c3ccc4cc5n(c4n3)[C@H](C)CNC5=O)cnc21` [Example 66, (9R)-9-methyl-6-oxo-N-[1-(propan-2-yl)-1H-pyrazolo[3,4-b]pyridin-5-yl]-6,7,8,9-tetrahydropyrido[3′,2′:4,5]pyrrolo[1,2-a]pyrazine-2-carboxamide], the pIC50 was 8.40. Regarding `O=C(Nc1nc2cc(Cl)ccc2[nH]1)c1ccc2cc3n(c2n1)CCCNC3=O` [Example 67, N-(5-chloro-1H-benzimidazol-2-yl)-6-oxo-7,8,9,10-tetrahydro-6H-pyrido[3′,2′:4,5]pyrrolo[1,2-a][1,4]diazepine-2-carboxamide], the pIC50 was 8.21. For the molecule `CC1CCNC(=O)c2cc3ccc(C(=O)Nc4cnn(Cc5ccncc5)c4)nc3n21` (stereo not drawn) [Example 68, 10-methyl-6-oxo-N-[1-(pyridin-4-ylmethyl)-1H-pyrazol-4-yl]-7,8,9,10-tetrahydro-6H-pyrido[3′,2′:4,5]pyrrolo[1,2-a][1,4]diazepine-2-carboxamide], the pIC50 is 9.57. In the case of `CCn1c(NC(=O)c2ccc3cc4n(c3n2)C(C)CCNC4=O)nc2ccccc21` (stereo not drawn) [Example 69, N-(1-ethyl-1H-benzimidazol-2-yl)-10-methyl-6-oxo-7,8,9,10-tetrahydro-6H-pyrido[3′,2′:4,5]pyrrolo[1,2-a][1,4]diazepine-2-carboxamide], the pIC50 is 7.82. As to `CC1CCNC(=O)c2cc3ccc(C(=O)Nc4nc5ccccc5n4CCCN(C)C)nc3n21` (stereo not drawn) [Example 70, N-{[3-(dimethylamino)propyl]-1H-benzimidazol-2-yl}-10-methyl-6-oxo-7,8,9,10-tetrahydro-6H-pyrido[3′,2′:4,5]pyrrolo[1,2-a][1,4]diazepine-2-carboxamide], the pIC50 was 7.57. As to `CCn1c(NC(=O)c2ccc3cc4n(c3n2)[C@@H](C)CNC4=O)nc2ccccc21` [Example 71, (9S)-N-(1-ethyl-1H-benzimidazol-2-yl)-9-methyl-6-oxo-6,7,8,9-tetrahydropyrido[3′,2′:4,5]pyrrolo[1,2-a]pyrazine-2-carboxamide], the pIC50 is 7.26. To `CCn1c(NC(=O)c2ccc3cc4n(c3n2)[C@H](C)CNC4=O)nc2ccccc21` [Example 72, (9R)-N-(1-ethyl-1H-benzimidazol-2-yl)-9-methyl-6-oxo-6,7,8,9-tetrahydropyrido[3′,2′:4,5]pyrrolo[1,2-a]pyrazine-2-carboxamide] belongs 7.58; to `C[C@H]1CNC(=O)c2cc3ccc(C(=O)Nc4nc5ccccc5n4CCCN(C)C)nc3n21` [Example 75, (9S)-N-{1-[3-(dimethylamino)propyl]-1H-benzimidazol-2-yl}-9-methyl-6-oxo-6,7,8,9-tetrahydropyrido[3′,2′:4,5]pyrrolo[1,2-a]pyrazine-2-carboxamide], 6.58; to `C[C@@H]1CNC(=O)c2cc3ccc(C(=O)Nc4nc5ccccc5n4CCCN(C)C)nc3n21` [Example 76, (9R)-N-{1-[3-(dimethylamino)propyl]-1H-benzimidazol-2-yl}-9-methyl-6-oxo-6,7,8,9-tetrahydropyrido[3′,2′:4,5]pyrrolo[1,2-a]pyrazine-2-carboxamide], 7.27. As for `CC(C)(C)c1cc(NC(=O)c2ccc3cc4n(c3n2)CCCNC4=O)no1` [Example 79, N-(5-tert-butyl-1,2-oxazol-3-yl)-6-oxo-7,8,9,10-tetrahydro-6H-pyrido[3′,2′:4,5]pyrrolo[1,2-a][1,4]diazepine-2-carboxamide], the pIC50 was 7.72. For the molecule `Cc1cc(NC(=O)c2ccc3cc4n(c3n2)CCCNC4=O)no1` [Example 80, N-(5-methyl-1,2-oxazol-3-yl)-6-oxo-7,8,9,10-tetrahydro-6H-pyrido[3′,2′:4,5]pyrrolo[1,2-a][1,4]diazepine-2-carboxamide], the pIC50 was 7.72. For `O=C(Nc1cc(-c2ccccc2)no1)c1ccc2cc3n(c2n1)CCCNC3=O` [Example 81, 6-oxo-N-(3-phenyl-1,2-oxazol-5-yl)-7,8,9,10-tetrahydro-6H-pyrido[3′,2′:4,5]pyrrolo[1,2-a][1,4]diazepine-2-carboxamide], the pIC50 is 8.37.

On to `Cc1cc(NC(=O)c2ccc3cc4n(c3n2)C(C)CCNC4=O)no1` (stereo not drawn) [Example 82, 10-methyl-N-(5-methyl-1,2-oxazol-3-yl)-6-oxo-7,8,9,10-tetrahydro-6H-pyrido[3′,2′:4,5]pyrrolo[1,2-a][1,4]diazepine-2-carboxamide], for which the pIC50 is 8.28. In the case of `Cc1cc(NC(=O)c2ccc3cc4n(c3n2)[C@@H](C)CNC4=O)no1` [Example 83, (9S)-9-methyl-N-(5-methyl-1,2-oxazol-3-yl)-6-oxo-6,7,8,9-tetrahydropyrido[3′,2′:4,5]pyrrolo[1,2-a]pyrazine-2-carboxamide] it was 6.42; in that of `Cc1cc(NC(=O)c2ccc3cc4n(c3n2)[C@H](C)CNC4=O)no1` [Example 84, (9R)-9-methyl-N-(5-methyl-1,2-oxazol-3-yl)-6-oxo-6,7,8,9-tetrahydropyrido[3′,2′:4,5]pyrrolo[1,2-a]pyrazine-2-carboxamide], 8.18; in that of `CCc1cc(NC(=O)c2ccc3cc4n(c3n2)CC(C)(C)CNC4=O)no1` [Example 88, N-(5-ethyl-1,2-oxazol-3-yl)-9,9-dimethyl-6-oxo-7,8,9,10-tetrahydro-6H-pyrido[3′,2′:4,5]pyrrolo[1,2-a][1,4]diazepine-2-carboxamide], 6.96. In the case of `CC(C)c1cc(NC(=O)c2ccc3cc4n(c3n2)CC(C)(C)CNC4=O)no1` [Example 89, 9,9-dimethyl-6-oxo-N-[5-(propan-2-yl)-1,2-oxazol-3-yl]-7,8,9,10-tetrahydro-6H-pyrido[3′,2′:4,5]pyrrolo[1,2-a][1,4]diazepine-2-carboxamide] it was 6.90. To `CC1(C)CNC(=O)c2cc3ccc(C(=O)Nc4cc(C5CC5)on4)nc3n2C1` [Example 90, N-(5-cyclopropyl-1,2-oxazol-3-yl)-9,9-dimethyl-6-oxo-7,8,9,10-tetrahydro-6H-pyrido[3′,2′:4,5]pyrrolo[1,2-a][1,4]diazepine-2-carboxamide] belongs 7.37; to `Cc1cc(NC(=O)c2ccc3cc4n(c3n2)CC(C)(C)CNC4=O)no1` [Example 91, 9,9-dimethyl-N-(5-methyl-1,2-oxazol-3-yl)-6-oxo-7,8,9,10-tetrahydro-6H-pyrido[3′,2′:4,5]pyrrolo[1,2-a][1,4]diazepine-2-carboxamide], 6.40; to `CC1(C)CNC(=O)c2cc3ccc(C(=O)Nc4cc(-c5ccccc5)on4)nc3n2C1` [Example 92, 9,9-dimethyl-6-oxo-N-(5-phenyl-1,2-oxazol-3-yl)-7,8,9,10-tetrahydro-6H-pyrido[3′,2′:4,5]pyrrolo[1,2-a][1,4]diazepine-2-carboxamide], 6.30. As for `CC1(C)CNC(=O)c2cc3ccc(C(=O)Nc4cc(Cc5ccccc5)on4)nc3n2C1` [Example 93, N-(5-benzyl-1,2-oxazol-3-yl)-9,9-dimethyl-6-oxo-7,8,9,10-tetrahydro-6H-pyrido[3′,2′:4,5]pyrrolo[1,2-a][1,4]diazepine-2-carboxamide], the pIC50 is 6.44. To `CC1CCNC(=O)c2cc3ccc(C(=O)Nc4cc(Cc5ccccc5)on4)nc3n21` (stereo not drawn) [Example 94, N-(5-benzyl-1,2-oxazol-3-yl)-10-methyl-6-oxo-7,8,9,10-tetrahydro-6H-pyrido[3′,2′:4,5]pyrrolo[1,2-a][1,4]diazepine-2-carboxamide] belongs 8.48; to `O=C(Nc1cc(Cc2ccccc2)no1)c1ccc2cc3n(c2n1)CCCNC3=O` [Example 95, N-(3-benzyl-1,2-oxazol-5-yl)-6-oxo-7,8,9,10-tetrahydro-6H-pyrido[3′,2′:4,5]pyrrolo[1,2-a][1,4]diazepine-2-carboxamide], 8.44.

Take `CC1CCNC(=O)c2cc3ccc(C(=O)Nc4cc(Cc5ccccc5)no4)nc3n21` (stereo not drawn) [Example 96, N-(3-benzyl-1,2-oxazol-5-yl)-10-methyl-6-oxo-7,8,9,10-tetrahydro-6H-pyrido[3′,2′:4,5]pyrrolo[1,2-a][1,4]diazepine-2-carboxamide]: the pIC50 is 7.89.

As for `C[C@H]1CNC(=O)c2cc3ccc(C(=O)Nc4cc(Cc5ccccc5)on4)nc3n21` [Example 97, (9S)-N-(5-benzyl-1,2-oxazol-3-yl)-9-methyl-6-oxo-6,7,8,9-tetrahydropyrido[3′,2′:4,5]pyrrolo[1,2-a]pyrazine-2-carboxamide], the pIC50 was 6.31. To `C[C@@H]1CNC(=O)c2cc3ccc(C(=O)Nc4cc(Cc5ccccc5)on4)nc3n21` [Example 98, (9R)-N-(5-benzyl-1,2-oxazol-3-yl)-9-methyl-6-oxo-6,7,8,9-tetrahydropyrido[3′,2′:4,5]pyrrolo[1,2-a]pyrazine-2-carboxamide] belongs 8.41.

What is called pIC50 is the negative decadic logarithm of the IC50, by convention in mol/L.
